Holding throughout (test): coupled NADH oxidation at […] nm
Holding throughout (type): biochemical

One assay addresses T1, KduI (Lacticaseibacillus rhamnosus, UniProt C2JUP1).
T1 construct: recombinant, expressed in E. coli, purified to homogeneity; encoded in GAG genetic cluster
T1 sequence (C2JUP1 1-281): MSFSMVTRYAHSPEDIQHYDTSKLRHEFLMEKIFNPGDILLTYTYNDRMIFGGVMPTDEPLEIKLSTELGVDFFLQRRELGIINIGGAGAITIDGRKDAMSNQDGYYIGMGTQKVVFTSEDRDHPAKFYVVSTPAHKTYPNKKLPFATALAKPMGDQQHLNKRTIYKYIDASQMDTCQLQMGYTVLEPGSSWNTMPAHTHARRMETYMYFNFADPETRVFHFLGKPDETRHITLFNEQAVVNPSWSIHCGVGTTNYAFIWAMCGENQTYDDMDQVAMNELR
The note with it: isomerase coupled with reductase DhuD or KduD; DHU prepared from unsaturated chondroitin disaccharide (6-sulfate) with UGL.

For a further assay, the target named is T2, DhuI (Streptococcus agalactiae, UniProt Q8DXE6).
T2 construct: gene SAG1905; purified protein
T2 sequence (Q8DXE6 1-212): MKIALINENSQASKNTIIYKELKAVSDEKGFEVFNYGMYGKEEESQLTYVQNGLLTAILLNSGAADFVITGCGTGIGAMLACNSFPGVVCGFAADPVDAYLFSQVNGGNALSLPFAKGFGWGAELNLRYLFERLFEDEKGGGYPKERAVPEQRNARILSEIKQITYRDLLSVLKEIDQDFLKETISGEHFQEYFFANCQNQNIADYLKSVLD
Conditions: reference isomerase, coupled with reductase DhuD or KduD; DHU prepared with UGL.

A further assay addresses T3, KduD (Lacticaseibacillus rhamnosus, UniProt A0A0E3CKR8).
T3 construct: recombinant, expressed in E. coli, purified to homogeneity; encoded in GAG genetic cluster
T3 sequence (A0A0E3CKR8 23-274): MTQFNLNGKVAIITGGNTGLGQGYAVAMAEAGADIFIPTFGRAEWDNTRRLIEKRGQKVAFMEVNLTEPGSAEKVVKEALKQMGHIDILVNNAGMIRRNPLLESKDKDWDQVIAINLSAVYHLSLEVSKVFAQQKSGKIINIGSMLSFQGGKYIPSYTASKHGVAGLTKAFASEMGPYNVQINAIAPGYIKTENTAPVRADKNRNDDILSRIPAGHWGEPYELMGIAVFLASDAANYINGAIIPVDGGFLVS
The note with it: DK-II formed in situ from DHU by KduI or DhuI.

For a further assay, the target named is T4, DhuD (Streptococcus agalactiae, UniProt Q8E370).
T4 construct: gene gbs1891; purified protein
T4 sequence (Q8E370 1-270): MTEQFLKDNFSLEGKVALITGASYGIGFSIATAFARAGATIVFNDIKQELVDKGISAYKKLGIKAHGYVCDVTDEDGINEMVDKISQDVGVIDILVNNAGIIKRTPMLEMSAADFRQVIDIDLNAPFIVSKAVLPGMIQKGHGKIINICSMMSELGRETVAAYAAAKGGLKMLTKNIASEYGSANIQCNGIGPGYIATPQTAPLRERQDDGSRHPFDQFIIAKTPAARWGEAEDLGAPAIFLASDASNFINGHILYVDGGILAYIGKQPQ
The note with it: reference reductase, DK-II formed in situ from DHU by DhuI or KduI.

As for `O=C[C@H](O)[C@@H](O)CC(=O)C(=O)O` [DHU, 4-deoxy-l-threo-5-hexosulose-uronic acid], the “coupled NADH oxidation at 340 nm” value is “KduI catalyses the isomerase reaction from DHU to DK-II” on KduI; “successive reaction of isomerase (DhuI or KduI) and reductase (DhuD or KduD)” on DhuI.
With `O=C(O)C(=O)C[C@H](O)C(=O)CO` [DK-II, 3-deoxy-d-glycero-2,5-hexodiulosonic acid], the “coupled NADH oxidation at 340 nm” value at KduD is “DK-II, which is further reduced to KDG by NADH-dependent reductase KduD”; at DhuD it was “successive reaction of isomerase (DhuI or KduI) and reductase (DhuD or KduD)”.
For `NC(=O)C1=CN([C@@H]2O[C@H](COP(=O)(O)OP(=O)(O)OC[C@H]3O[C@@H](n4cnc5c(N)ncnc54)[C@H](O)[C@@H]3O)[C@@H](O)[C@H]2O)C=CC1` [NADH], on KduD, the “coupled NADH oxidation at 340 nm” value is “further reduced to KDG by NADH-dependent reductase KduD”.
